In ChEMBL document CHEMBL3621050, “Activity and anion inhibition studies of the α-carbonic anhydrase from Thiomicrospira crunogena XCL-2 Gammaproteobacterium” (Bioorg Med Chem Lett, 2015):

What was measured:
[1] = molecular target: T1, Carbonic anhydrase, alpha family (Thiomicrospira crunogena, UniProt Q31FD6); test: Inhibition of Thiomicrospira crunogena XCL-2 alpha-carbonic anhydrase expressed in Escherichia coli BL21 (DE3) cells by [18O]-exchange mass spectroscopy
T1 sequence (Q31FD6 whole entry): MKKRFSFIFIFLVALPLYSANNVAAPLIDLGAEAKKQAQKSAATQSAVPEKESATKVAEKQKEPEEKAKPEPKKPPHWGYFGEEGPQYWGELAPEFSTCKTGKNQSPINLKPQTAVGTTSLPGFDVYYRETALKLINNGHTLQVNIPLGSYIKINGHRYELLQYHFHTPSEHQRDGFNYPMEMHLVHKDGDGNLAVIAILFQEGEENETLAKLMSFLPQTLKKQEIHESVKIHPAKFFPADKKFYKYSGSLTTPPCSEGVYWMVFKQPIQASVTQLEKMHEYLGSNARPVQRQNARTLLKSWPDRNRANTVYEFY

[2] = Inhibition of Vibrio cholerae alpha-carbonic anhydrase by [18O]-exchange mass spectroscopy
[3] = Inhibition of Sulfurihydrogenibium yellowstonense YO3AOP1 alpha-carbonic anhydrase by [18O]-exchange mass spectroscopy
[4] = Inhibition of Sulfurihydrogenibium azorense alpha-carbonic anhydrase by [18O]-exchange mass spectroscopy

| SMILES | Ki [1] | Ki [2] | Ki [3] | Ki [4] |
| --- | --- | --- | --- | --- |
| Br [BROMIDE] | 242000 µM | 28000 µM | 49000 µM | 940 µM |
| Cl [HYDROCHLORIC ACID] | 361000 µM | 930 µM | 8300 µM | 850 µM |
| S [HYDROGEN SULFIDE] | 1.1 µM | 74 µM | 580 µM | 380 µM |
| I [IODIDE] | 53000 µM | 9730 µM | 860 µM | 870 µM |
